According to PMC10652874, “Investigation into the mechanism of action of the antimicrobial peptide epilancin 15X” (Frontiers in Microbiology, 2023):

System: cell wall biosynthesis in S. carnosus TM300
Experiment: Macromolecular synthesis assay: 14C-N-acetyl-D-glucosamine incorporation into cell wall
Type: cell-based, Staphylococcus carnosus
Settings: S. carnosus TM300, three independent experiments
Description: Radiolabel incorporation experiments were carried out similarly as previously described but using S. carnosus ([Wu et al., 2019]). The OD600 of parallel nonradioactive cultures was measured at each time point to normalize the measured radioactivity and minimize effects due to cell death and growth inhibition. The radiolabeled reagents and their corresponding positive and negative antibiotic controls were as follows. […] All experiments were conducted independently three times.
Figure S3. Thre e in de pen den t ex perime nts of incorporation of (A) 14C- acetic acid into fatty acids, (B) 14C- thymi din e into D NA, (C) 3H-uridi ne into RNA, (D) 14C- lab el ed ami no acids into protei n, and (E) 14C- label ed GlcNAc into cell w all in S. carnosus TM300 cells treated with vario u s antimicro bia l agents. T he p ercent i nco rpo ratio n at 0 min was measured after incubati ng the cel l cultur e with 0.8 μCi/mL radioactive precursors for 15 min. Then 0.5x, 1x, 2x, or 4x MIC epilanci n 15X and 2x MIC controls were added to the cell cultur e (t=0), and t he percent incorporation was measur ed ov er time. Positive controls a re gr een and negative controls are black (cells o nly) an d blu e (co mpo und w ith mo d e o f actio n unr elate d to th e a ssay i n que stio n). […]

Epilancin 15X
cell wall biosynthesis (14C-N-acetyl-D-glucosamine incorporation): no clear change
